For experiment [1], the target named is Calcium/calmodulin-dependent protein kinase type II subunit alpha (Homo sapiens) (UniProt Q9UQM7).
In experiment [2] the target is Serine/threonine-protein kinase 16 (Homo sapiens) (UniProt O75716).
The target in experiment [3] is Casein kinase I isoform gamma-1 (Homo sapiens) (UniProt Q9HCP0).
For experiment [4], the target named is TRAF2 and NCK-interacting protein kinase (Homo sapiens) (UniProt Q9UKE5).
Experiment [5] has as its target Casein kinase I isoform gamma-2 (Homo sapiens) (UniProt P78368).
Experiment [6] deals with Serine/threonine-protein kinase 26 (Homo sapiens) (UniProt Q9P289).
Experiment [7] concerns the target Glycogen synthase kinase-3 beta (Homo sapiens, UniProt P49841).
Experiment [8] addresses T1, Mitogen-activated protein kinase kinase kinase 5 (Homo sapiens) (UniProt Q99683).
T1 sequence (whole entry): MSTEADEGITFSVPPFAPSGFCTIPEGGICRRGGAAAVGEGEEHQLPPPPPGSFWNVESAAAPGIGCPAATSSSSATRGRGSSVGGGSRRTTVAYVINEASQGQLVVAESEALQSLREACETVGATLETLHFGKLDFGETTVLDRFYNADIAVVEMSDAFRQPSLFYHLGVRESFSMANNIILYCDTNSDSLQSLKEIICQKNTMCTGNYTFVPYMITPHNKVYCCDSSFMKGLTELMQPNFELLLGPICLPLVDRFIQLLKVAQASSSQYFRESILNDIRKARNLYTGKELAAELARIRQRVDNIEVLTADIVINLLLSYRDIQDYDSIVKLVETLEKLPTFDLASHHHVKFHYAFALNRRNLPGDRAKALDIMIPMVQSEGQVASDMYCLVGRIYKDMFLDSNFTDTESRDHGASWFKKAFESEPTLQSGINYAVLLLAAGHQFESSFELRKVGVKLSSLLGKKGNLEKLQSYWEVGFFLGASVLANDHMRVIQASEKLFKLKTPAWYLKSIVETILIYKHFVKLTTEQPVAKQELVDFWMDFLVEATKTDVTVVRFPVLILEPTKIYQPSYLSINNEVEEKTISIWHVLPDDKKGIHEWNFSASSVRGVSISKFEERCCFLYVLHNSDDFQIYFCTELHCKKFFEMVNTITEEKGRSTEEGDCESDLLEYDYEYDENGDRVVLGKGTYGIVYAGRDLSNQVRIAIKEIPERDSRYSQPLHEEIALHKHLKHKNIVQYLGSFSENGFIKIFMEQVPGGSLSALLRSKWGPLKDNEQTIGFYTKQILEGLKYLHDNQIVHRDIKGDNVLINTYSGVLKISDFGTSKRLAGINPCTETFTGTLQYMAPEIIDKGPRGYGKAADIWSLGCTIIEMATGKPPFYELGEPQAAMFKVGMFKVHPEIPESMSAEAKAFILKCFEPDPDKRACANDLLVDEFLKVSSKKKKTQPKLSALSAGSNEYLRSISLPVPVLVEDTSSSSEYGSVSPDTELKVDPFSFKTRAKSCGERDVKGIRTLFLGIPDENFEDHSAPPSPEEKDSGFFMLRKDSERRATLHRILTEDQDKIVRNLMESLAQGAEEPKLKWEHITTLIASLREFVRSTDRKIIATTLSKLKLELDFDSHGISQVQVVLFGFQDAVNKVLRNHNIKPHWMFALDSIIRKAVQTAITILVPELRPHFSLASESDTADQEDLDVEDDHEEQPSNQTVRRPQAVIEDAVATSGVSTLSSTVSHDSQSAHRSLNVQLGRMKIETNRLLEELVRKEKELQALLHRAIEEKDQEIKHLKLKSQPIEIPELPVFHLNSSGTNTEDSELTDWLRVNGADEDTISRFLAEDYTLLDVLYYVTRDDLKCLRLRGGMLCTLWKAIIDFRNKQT

For experiment [9], the target named is Cyclin-dependent kinase 2 (Homo sapiens, UniProt P24941).
In experiment [10] the target is Cyclin-dependent kinase 6 (Homo sapiens) (UniProt Q00534).
Sequence of Cyclin-dependent kinase 6 (Homo sapiens) (Q00534 whole entry): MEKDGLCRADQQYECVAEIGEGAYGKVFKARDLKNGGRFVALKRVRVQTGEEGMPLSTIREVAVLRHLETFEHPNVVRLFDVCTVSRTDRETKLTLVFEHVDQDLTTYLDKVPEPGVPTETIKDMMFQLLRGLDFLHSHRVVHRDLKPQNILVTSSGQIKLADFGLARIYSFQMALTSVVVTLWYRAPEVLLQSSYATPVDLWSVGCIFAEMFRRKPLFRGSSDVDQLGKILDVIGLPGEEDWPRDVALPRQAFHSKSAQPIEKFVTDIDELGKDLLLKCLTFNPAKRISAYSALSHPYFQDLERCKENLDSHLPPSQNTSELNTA
Experiment [11] has as its target Serine/threonine-protein kinase OSR1 (Homo sapiens) (UniProt O95747).
Experiment [12] deals with Dual specificity protein kinase CLK2 (Homo sapiens) (UniProt P49760).
Sequence of Dual specificity protein kinase CLK2 (Homo sapiens) (P49760 whole entry, looked up): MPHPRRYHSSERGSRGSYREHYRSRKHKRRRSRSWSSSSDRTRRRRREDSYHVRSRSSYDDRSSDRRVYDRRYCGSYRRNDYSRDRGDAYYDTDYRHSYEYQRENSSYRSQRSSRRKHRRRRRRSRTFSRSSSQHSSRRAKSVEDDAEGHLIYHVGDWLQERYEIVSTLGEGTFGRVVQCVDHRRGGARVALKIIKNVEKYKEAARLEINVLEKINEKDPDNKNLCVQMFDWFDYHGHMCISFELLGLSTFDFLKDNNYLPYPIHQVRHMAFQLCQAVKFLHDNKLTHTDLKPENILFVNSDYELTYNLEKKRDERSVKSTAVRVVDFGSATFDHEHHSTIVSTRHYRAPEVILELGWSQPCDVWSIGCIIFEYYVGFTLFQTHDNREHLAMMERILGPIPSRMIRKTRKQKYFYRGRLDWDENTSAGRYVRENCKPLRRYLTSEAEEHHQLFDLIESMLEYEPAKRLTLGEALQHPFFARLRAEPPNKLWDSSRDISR
In experiment [13] the target is Serine/threonine-protein kinase PAK 6 (Homo sapiens) (UniProt Q9NQU5).
Sequence of Serine/threonine-protein kinase PAK 6 (Homo sapiens) (Q9NQU5 whole entry, looked up): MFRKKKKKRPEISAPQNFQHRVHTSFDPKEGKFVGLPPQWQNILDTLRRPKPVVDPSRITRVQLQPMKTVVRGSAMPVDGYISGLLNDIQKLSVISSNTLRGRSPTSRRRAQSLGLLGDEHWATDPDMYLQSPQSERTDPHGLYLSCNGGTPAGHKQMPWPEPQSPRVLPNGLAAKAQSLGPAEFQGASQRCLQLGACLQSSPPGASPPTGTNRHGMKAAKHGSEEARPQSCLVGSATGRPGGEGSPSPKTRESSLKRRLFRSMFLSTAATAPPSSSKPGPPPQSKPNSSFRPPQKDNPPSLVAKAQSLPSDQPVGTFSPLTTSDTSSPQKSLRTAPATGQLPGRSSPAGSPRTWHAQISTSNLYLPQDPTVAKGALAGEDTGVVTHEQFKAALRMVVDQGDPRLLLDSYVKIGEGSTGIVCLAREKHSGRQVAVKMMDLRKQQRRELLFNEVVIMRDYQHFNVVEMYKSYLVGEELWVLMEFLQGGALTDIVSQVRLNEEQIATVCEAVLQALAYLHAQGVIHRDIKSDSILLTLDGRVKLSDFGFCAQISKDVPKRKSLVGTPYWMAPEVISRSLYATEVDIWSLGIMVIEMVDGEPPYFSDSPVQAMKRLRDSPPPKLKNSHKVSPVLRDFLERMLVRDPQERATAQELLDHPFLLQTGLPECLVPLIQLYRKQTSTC
In experiment [14] the target is Cyclin-dependent kinase-like 1 (Homo sapiens) (UniProt Q00532).
Sequence of Cyclin-dependent kinase-like 1 (Homo sapiens) (Q00532 whole entry): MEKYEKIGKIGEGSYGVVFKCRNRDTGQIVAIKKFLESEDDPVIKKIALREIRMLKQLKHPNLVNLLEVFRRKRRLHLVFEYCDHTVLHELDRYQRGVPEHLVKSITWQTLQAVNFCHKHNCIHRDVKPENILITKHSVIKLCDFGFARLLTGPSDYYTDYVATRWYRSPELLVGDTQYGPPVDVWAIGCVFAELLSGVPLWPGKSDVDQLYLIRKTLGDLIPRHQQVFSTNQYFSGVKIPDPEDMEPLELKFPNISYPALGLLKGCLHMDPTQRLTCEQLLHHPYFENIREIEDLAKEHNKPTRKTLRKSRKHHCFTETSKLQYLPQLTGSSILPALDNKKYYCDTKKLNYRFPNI
Experiment [15] addresses Mitogen-activated protein kinase 6 (Homo sapiens) (UniProt Q16659).
Experiment [16] concerns the target Serine/threonine-protein kinase pim-1 (Homo sapiens) (UniProt P11309).
Experiment [17] has as its target Calcium/calmodulin-dependent protein kinase type II subunit beta (Homo sapiens) (UniProt Q13554).
Experiment [18] deals with T2, Serine/threonine-protein kinase 17A (Homo sapiens) (UniProt Q9UEE5).
T2 sequence (whole entry): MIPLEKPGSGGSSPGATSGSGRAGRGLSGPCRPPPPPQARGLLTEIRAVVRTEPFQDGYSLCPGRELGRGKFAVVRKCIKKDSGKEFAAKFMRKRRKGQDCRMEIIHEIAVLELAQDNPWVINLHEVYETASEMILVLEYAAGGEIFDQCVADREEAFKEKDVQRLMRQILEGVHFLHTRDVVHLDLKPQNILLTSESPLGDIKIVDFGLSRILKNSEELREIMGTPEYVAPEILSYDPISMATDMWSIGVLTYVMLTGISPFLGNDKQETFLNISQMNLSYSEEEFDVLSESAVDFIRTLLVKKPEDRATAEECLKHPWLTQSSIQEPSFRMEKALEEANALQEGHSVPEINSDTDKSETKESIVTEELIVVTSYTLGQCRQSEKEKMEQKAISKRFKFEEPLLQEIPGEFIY

Experiment [19] addresses Serine/threonine-protein kinase pim-2 (Homo sapiens, UniProt Q9P1W9).
Experiment [20] addresses Ribosomal protein S6 kinase alpha-3 (Homo sapiens) (UniProt P51812).

Sequence of Casein kinase I isoform gamma-2 (Homo sapiens) (P78368 whole entry, looked up, canonical isoform): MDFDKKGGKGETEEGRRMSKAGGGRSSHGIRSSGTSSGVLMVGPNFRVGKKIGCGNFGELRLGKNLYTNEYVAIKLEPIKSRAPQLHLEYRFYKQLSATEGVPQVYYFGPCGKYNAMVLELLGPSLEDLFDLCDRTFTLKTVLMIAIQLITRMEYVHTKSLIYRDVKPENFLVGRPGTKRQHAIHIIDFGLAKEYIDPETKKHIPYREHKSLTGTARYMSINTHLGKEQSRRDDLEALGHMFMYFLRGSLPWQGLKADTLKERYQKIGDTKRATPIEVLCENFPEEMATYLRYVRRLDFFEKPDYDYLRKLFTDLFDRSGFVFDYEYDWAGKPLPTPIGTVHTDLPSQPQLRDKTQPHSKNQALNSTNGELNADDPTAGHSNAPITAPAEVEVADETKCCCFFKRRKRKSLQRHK
Sequence of Calcium/calmodulin-dependent protein kinase type II subunit alpha (Homo sapiens) (Q9UQM7 whole entry): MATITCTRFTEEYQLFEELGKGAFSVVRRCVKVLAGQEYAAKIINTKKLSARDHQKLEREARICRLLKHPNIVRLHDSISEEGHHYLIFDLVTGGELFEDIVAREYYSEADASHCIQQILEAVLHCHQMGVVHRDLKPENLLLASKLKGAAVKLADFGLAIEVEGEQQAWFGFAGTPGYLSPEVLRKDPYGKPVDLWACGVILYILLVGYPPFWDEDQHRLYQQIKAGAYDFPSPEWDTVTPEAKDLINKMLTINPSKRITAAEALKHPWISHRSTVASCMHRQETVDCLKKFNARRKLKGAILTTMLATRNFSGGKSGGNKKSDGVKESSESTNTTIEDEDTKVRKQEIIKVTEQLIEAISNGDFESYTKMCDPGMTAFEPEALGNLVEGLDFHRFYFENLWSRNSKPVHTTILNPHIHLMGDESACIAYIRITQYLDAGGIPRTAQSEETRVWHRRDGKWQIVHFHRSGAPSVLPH
Sequence of Serine/threonine-protein kinase OSR1 (Homo sapiens) (O95747 2-527 limits assumed): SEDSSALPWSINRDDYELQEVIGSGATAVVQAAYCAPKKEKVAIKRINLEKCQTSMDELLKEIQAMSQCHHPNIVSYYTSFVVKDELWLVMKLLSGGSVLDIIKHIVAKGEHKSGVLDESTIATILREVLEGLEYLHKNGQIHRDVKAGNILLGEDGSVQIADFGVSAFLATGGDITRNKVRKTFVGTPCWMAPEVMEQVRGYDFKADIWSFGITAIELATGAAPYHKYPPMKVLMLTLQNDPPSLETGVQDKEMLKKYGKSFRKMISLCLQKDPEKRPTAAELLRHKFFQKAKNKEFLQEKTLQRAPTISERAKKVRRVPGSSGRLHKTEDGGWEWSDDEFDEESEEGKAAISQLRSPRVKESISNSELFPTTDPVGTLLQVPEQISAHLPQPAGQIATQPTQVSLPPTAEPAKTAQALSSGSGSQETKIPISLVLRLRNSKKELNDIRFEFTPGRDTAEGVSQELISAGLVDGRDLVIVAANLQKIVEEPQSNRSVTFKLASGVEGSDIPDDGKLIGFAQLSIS
Sequence of Serine/threonine-protein kinase 16 (Homo sapiens) (O75716 whole entry, canonical isoform): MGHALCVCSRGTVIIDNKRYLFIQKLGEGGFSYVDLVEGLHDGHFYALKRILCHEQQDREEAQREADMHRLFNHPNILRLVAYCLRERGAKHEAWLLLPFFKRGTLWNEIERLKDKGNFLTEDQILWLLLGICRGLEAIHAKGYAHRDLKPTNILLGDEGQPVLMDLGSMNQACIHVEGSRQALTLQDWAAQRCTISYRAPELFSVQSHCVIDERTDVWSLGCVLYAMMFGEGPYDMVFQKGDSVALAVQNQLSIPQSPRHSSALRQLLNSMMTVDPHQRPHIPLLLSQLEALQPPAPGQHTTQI
Sequence of Calcium/calmodulin-dependent protein kinase type II subunit beta (Homo sapiens) (Q13554 whole entry): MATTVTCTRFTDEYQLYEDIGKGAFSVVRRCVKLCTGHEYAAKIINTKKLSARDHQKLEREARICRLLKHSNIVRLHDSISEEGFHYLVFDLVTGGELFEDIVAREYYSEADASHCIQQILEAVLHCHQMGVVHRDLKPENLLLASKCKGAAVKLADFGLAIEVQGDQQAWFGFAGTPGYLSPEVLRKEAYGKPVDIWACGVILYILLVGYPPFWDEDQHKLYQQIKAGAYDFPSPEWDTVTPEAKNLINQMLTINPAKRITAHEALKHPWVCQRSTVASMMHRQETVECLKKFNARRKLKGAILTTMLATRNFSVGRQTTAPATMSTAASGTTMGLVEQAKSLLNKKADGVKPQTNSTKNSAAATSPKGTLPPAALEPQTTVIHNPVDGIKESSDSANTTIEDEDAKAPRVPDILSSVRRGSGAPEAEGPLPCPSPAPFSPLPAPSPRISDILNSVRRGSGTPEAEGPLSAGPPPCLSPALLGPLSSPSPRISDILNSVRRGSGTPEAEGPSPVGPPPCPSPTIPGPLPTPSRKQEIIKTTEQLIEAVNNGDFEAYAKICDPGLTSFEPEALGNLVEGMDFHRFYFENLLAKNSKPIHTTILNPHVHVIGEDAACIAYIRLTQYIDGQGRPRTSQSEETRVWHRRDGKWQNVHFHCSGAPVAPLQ
Sequence of Ribosomal protein S6 kinase alpha-3 (Homo sapiens) (P51812 whole entry): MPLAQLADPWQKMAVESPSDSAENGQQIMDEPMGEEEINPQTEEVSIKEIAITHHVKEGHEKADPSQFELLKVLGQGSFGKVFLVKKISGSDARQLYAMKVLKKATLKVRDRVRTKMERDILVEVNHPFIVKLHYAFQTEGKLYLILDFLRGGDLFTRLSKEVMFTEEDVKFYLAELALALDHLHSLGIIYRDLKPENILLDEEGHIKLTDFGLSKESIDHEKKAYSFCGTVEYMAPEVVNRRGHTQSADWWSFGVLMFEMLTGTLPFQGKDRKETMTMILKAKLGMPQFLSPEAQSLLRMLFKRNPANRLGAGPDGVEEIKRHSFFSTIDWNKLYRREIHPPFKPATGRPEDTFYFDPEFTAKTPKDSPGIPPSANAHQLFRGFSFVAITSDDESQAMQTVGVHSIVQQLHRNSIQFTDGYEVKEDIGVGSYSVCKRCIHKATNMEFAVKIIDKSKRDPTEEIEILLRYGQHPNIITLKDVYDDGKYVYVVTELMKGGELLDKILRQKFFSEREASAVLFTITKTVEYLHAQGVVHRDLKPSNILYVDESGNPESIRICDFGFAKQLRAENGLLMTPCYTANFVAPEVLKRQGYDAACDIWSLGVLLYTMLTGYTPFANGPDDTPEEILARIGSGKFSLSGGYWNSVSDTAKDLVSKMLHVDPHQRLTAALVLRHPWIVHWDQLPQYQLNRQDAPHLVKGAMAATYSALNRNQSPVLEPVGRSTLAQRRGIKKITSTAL

Turning to `NCCNc1ncc(C(N)=O)c(Nc2cccc(C(F)(F)F)c2)n1`, the ΔTm in experiment [1] is -0.3 °C; in [2], 1.9 °C; in experiment [3], 1 °C; in experiment [4], 1.3 °C; in [5], 0.7 °C; in experiment [6] it was 1 °C. Further, the ΔTm was 8.1 °C in [7]; -0.1 °C in experiment [8]; 0.1 °C in experiment [9]; 1.1 °C in experiment [10]; 5.4 °C in experiment [11]; 1.6 °C in [12]. The ΔTm in experiment [13] amounted to 0.9 °C; in [14], 0.6 °C; in experiment [15], 3 °C; in experiment [16], 5.7 °C; in experiment [17], 0.4 °C; in experiment [18], 3.2 °C. Also, the ΔTm came out at 0.7 °C in [19] and 2.6 °C in [20].
Consider `COc1ccc(Cl)cc1NC(=O)Nc1cc(C)nc2ccccc12`, for which the ΔTm in experiment [1] was -0.5 °C; in [2], 0.4 °C; in experiment [3] it was 1.4 °C; in [5] it was -0.1 °C; in [6], 1.1 °C; in experiment [7], 0 °C. Also, the ΔTm in experiment [8] is 2.2 °C; in [9], -0.6 °C; in experiment [10], 0.4 °C; in experiment [11], 0.6 °C; in experiment [12], 0.6 °C; in experiment [13] it was 1.9 °C. Besides, the ΔTm in experiment [14] was 1.6 °C; in experiment [15] it was 2.1 °C; in experiment [16] it was -1.1 °C; in [17], 0.3 °C; in experiment [18], -0.1 °C; in experiment [19], 1 °C. Also, the ΔTm in [20] is 0.4 °C.
For the molecule `O=C(Nc1cccc(Nc2nccc(Nc3cccc(C(F)(F)F)c3)n2)c1)C1CC1` [ANILINOPYRIMIDINE1], the ΔTm in experiment [1] was determined as 0.3 °C; in experiment [2], 2.3 °C; in experiment [3], 0.7 °C; in experiment [4], 0.2 °C; in experiment [5], 6.5 °C; in experiment [6], 1.5 °C. For the same molecule, the ΔTm in experiment [7] came out at 1.1 °C; in [8], 0.2 °C; in experiment [9], 0 °C; in experiment [10], 0.8 °C; in experiment [11] it was 1.2 °C; in experiment [12] it was 0.6 °C. Besides, the ΔTm in experiment [13] is -0.9 °C; in experiment [14], 1.6 °C; in experiment [15], 1.8 °C; in experiment [16] it was 7.3 °C; in [17] it was 1 °C; in experiment [18], 1.5 °C. Moreover, the ΔTm was found to be 6.9 °C in [19] and 5.7 °C in experiment [20].
For the molecule `COc1cc2ncnc(Nc3ccc(NC(=O)c4ccccc4)cc3)c2cc1OC` [ANILINOQUINAZOLINE1], the ΔTm in experiment [1] was 0 °C; in [2], 0.4 °C; in experiment [3], 1.1 °C; in [4] it was 0.9 °C; in [5] it was 0.5 °C; in experiment [6], 1.8 °C. The ΔTm in [7] was 2.9 °C; in [8], 0.1 °C; in [9], -0.5 °C; in experiment [10] it was 1.1 °C; in experiment [11], 0.3 °C; in experiment [12] it was 0 °C. Also, the ΔTm was 0.6 °C in experiment [13]; 0 °C in experiment [14]; -0.1 °C in experiment [15]; 0.7 °C in [16]; 0.3 °C in experiment [17]; 2.1 °C in [18]. Also, the ΔTm in experiment [19] came out at 0.3 °C; in experiment [20], 9.4 °C.
With `CC(C)[C@H](CO)Nc1nc(Nc2cc(N)cc(Cl)c2)c2ncn(C(C)C)c2n1` [AMINOPURVALANOL], the ΔTm in [1] was 0.5 °C; in experiment [2] it was 0.2 °C; in [3], 2 °C; in experiment [5], 1.8 °C; in experiment [6], 4.3 °C; in experiment [7], 0.7 °C. Further, the ΔTm in [8] came to 2.4 °C; in [11] it was 2.6 °C; in experiment [12], 4.5 °C; in experiment [13], 0.1 °C; in experiment [14], 2.7 °C; in experiment [15] it was 1.5 °C. In addition, the ΔTm was 1.2 °C in experiment [16]; 0.5 °C in [17]; 1.6 °C in experiment [18]; -0.1 °C in [19]; 3.4 °C in experiment [20].
For `Cc1nc(N)sc1-c1ccnc(Nc2cccc([N+](=O)[O-])c2)n1`, the ΔTm came out at 1.4 °C in [1]; 2.9 °C in experiment [2]; 3.9 °C in [3]; 0.9 °C in experiment [4]; 5.1 °C in [5]; 0.4 °C in experiment [6]. Further, the ΔTm in experiment [7] was 2.1 °C; in experiment [8], 1.2 °C; in experiment [10], 4.3 °C; in experiment [11], 1.2 °C; in experiment [12] it was 7.9 °C; in [13] it was -1.1 °C. The ΔTm in experiment [14] came out at 3.5 °C; in [15] it was 2.1 °C; in [16] it was 1.1 °C; in experiment [18], 1.9 °C; in experiment [19] it was 8.1 °C; in experiment [20], 10.7 °C.
With `CN1CCc2[nH]c(=S)c(C#N)c(-c3cccs3)c2C1`, the ΔTm is 0.8 °C in [1]; 0.5 °C in [2]; 0.8 °C in experiment [3]; 5.2 °C in experiment [5]; 1 °C in [6]; 4 °C in experiment [7]. The ΔTm came to 4.7 °C in experiment [8]; 0 °C in [9]; 0.1 °C in experiment [10]; 0.8 °C in [11]; 6.2 °C in experiment [12]; 0 °C in [13]. Further, the ΔTm in experiment [14] is 11.1 °C; in [15], 1.2 °C; in experiment [16] it was 1.4 °C; in experiment [17], -0.2 °C; in [18], 0.9 °C; in experiment [19] it was -0.3 °C. Further, the ΔTm in experiment [20] is 0.9 °C.
